According to ChEMBL document CHEMBL1130837, “8-Aminoquinolines as anticoccidials--II” (Bioorg Med Chem Lett, 1998):

Experiments:
Format in all cases: functional, organism-based
[1] = species: Gallus gallus; assay: Inhibitory activity against second generation merozoids of Eimeria tenella in chick hepatocyte assay; value given as 0.2-1.0
[2] = species: Gallus gallus; assay: Inhibitory activity against second generation merozoids of Eimeria tenella in chick hepatocyte assay in the absence of inhibitor; value given as 0.004-0.0008
[3] = species: Gallus gallus; assay: Inhibitory activity against second generation merozoids of Eimeria tenella in chick hepatocyte assay in the presence of Tranylcypromine; value given as 0.004-0.0008
[4] = species: Gallus gallus; assay: Inhibitory activity against second generation merozoids of Eimeria tenella in chick hepatocyte assay in the presence of iproniazid; value given as 0.004-0.0008
[5] = species: Gallus gallus; assay: Inhibitory activity against second generation merozoids of Eimeria tenella in chick hepatocyte assay in the presence of iproniazid; Value given as 0.08-0.016
[6] = species: Gallus gallus; assay: Inhibitory activity against second generation merozoids of Eimeria tenella in chick hepatocyte assay in the absence of inhibitor; Value given as 0.08-0.016
[7] = species: Gallus gallus; assay: Inhibitory activity against second generation merozoids of Eimeria tenella in chick hepatocyte assay in the presence of Tranylcypromine; Value given as 0.08-0.016
[8] = species: Gallus gallus; assay: Inhibitory activity against second generation merozoids of Eimeria tenella in chick hepatocyte assay
[9] = species: Gallus gallus; assay: Inhibitory activity against second generation merozoids of Eimeria tenella in chick hepatocyte assay in the presence of Tranylcypromine; Value given as 1-5
[10] = species: Gallus gallus; assay: Inhibitory activity against second generation merozoids of Eimeria tenella in chick hepatocyte assay in the presence of alpha-naphthoflavone at 5 ug/ml; value given as 0.2-1.0
[11] = species: Gallus gallus; assay: Inhibitory activity against second generation merozoids of Eimeria tenella in chick hepatocyte assay in the absence of inhibitor; value given as 0.2-1.0
[12] = species: Gallus gallus; assay: Inhibitory activity against second generation merozoids of Eimeria tenella in chick hepatocyte assay in the presence of iproniazid; Value given as 1-5
[13] = species: Gallus gallus; assay: Inhibitory activity against second generation merozoids of Eimeria tenella in chick hepatocyte assay in the presence of SKF-525A at 5 ug/ml; value given as 0.2-1.0
[14] = species: Gallus gallus; assay: Inhibitory activity against second generation merozoids of Eimeria tenella in chick hepatocyte assay in the presence of Ketoconazole at 5 ug/ml; value given as 0.2-1.0

COc1cc(NCCCC/C=N/OC(C)(C)C)c2ncccc2c1
IC50 [1]: 0.2 p.p.m.

CCCCCCCCCCOc1cc2c(O)c(C(=O)OCC)cnc2cc1OCC [DECOQUINATE]
IC50 [2]: 0.0008 p.p.m. | IC50 [3]: 0.0008 p.p.m. | IC50 [4]: 0.0008 p.p.m.

CC[C@@H](C(=O)[C@@H](C)[C@@H](O)[C@H](C)[C@@H]1O[C@@H]([C@@H](CC)C(=O)O)CC[C@@H]1C)[C@H]1O[C@]2(C=C[C@@H](O)[C@]3(CC[C@@](C)([C@H]4CC[C@](O)(CC)[C@H](C)O4)O3)O2)[C@H](C)C[C@@H]1C [SALINOMYCIN]
IC50 [5]: 0.016 p.p.m. | IC50 [6]: 0.016 p.p.m. | IC50 [7]: 0.016 p.p.m.

COc1cc(NCCCC2(c3ccc(F)cc3)OCCO2)c2ncccc2c1
IC50 [1]: 0.2 p.p.m.

N#CC(c1ccc(Cl)cc1)c1c(Cl)cc(-n2ncc(=O)[nH]c2=O)cc1Cl (stereo not given) [DICLAZURIL]
IC50 [2]: 0.0008 p.p.m. | IC50 [3]: 0.0008 p.p.m. | IC50 [4]: 0.0008 p.p.m.

COc1cc(NCCCC/C=N/Oc2ccccc2)c2ncccc2c1
IC50 [1]: 0.2 p.p.m.

COc1cc(NCCCC/C=N/O)c2ncccc2c1
IC50 [8]: > 1 p.p.m.

COc1cc(NCCCC/C=N/OC(=O)c2ccccc2)c2ncccc2c1
IC50 [1]: 0.2 p.p.m.

CO/N=C/CCCCNc1cc(OC)cc2cccnc12
IC50 [1]: 0.2 p.p.m.

COc1cc(NCCCC2(C)OCCO2)c2ncccc2c1
IC50 [8]: > 1 p.p.m.

COc1cc(NCCCCC2OCCO2)c2ncccc2c1
IC50 [1]: 0.2 p.p.m.

COc1cc(NCCCCCO)c2ncccc2c1
IC50 [8]: > 1 p.p.m.

COc1cc(NCCCC/C=N/OCc2ccc([N+](=O)[O-])cc2)c2ncccc2c1
IC50 [8]: > 1 p.p.m.

COc1cc(NCCCC/C=N/OCC(=O)O)c2ncccc2c1
IC50 [8]: > 1 p.p.m.

COc1cc(NCCCCC(=O)O)c2ncccc2c1
IC50 [8]: > 1 p.p.m.

CCO/N=C/CCCCNc1cc(OC)cc2cccnc12
IC50 [1]: 0.2 p.p.m.

C=CCO/N=C/CCCCNc1cc(OC)cc2cccnc12
IC50 [1]: 0.2 p.p.m.

COc1cc(NCCCCCNC(C)C)c2ncccc2c1 [PENTAQUINE]
IC50 [9]: 1 p.p.m. | IC50 [10]: 0.2 p.p.m. | IC50 [11]: 0.2 p.p.m. | IC50 [12]: 1 p.p.m. | IC50 [13]: 0.2 p.p.m. | IC50 [14]: 0.2 p.p.m.

COc1cc(NCCCC2OCCO2)c2ncccc2c1
IC50 [8]: > 1 p.p.m.
